In patent US6548494B1, “Tricyclic inhibitors of poly(ADP-ribose) polymerases” (Agouron Pharmaceuticals, Inc., priority 1999, dated 2003):
Values joined by “and” are separate entries in the source; they are usually repeats but may differ in a detail not shown here. Equal entries are not always repeated.

How the values were obtained:
purified PARP protein = purified PARP protein (Homo sapiens, UniProt P09874); assay: PARP enzyme inhibition assay; format: biochemical; details: 20 nM purified PARP (5 nM for tight-binding inhibitors), 500 μM NAD+, 25° C.; several values in one cell = repeat determinations; read-out: Inhibition Constant Ki
purified PARP protein, sequence (P09874 whole entry): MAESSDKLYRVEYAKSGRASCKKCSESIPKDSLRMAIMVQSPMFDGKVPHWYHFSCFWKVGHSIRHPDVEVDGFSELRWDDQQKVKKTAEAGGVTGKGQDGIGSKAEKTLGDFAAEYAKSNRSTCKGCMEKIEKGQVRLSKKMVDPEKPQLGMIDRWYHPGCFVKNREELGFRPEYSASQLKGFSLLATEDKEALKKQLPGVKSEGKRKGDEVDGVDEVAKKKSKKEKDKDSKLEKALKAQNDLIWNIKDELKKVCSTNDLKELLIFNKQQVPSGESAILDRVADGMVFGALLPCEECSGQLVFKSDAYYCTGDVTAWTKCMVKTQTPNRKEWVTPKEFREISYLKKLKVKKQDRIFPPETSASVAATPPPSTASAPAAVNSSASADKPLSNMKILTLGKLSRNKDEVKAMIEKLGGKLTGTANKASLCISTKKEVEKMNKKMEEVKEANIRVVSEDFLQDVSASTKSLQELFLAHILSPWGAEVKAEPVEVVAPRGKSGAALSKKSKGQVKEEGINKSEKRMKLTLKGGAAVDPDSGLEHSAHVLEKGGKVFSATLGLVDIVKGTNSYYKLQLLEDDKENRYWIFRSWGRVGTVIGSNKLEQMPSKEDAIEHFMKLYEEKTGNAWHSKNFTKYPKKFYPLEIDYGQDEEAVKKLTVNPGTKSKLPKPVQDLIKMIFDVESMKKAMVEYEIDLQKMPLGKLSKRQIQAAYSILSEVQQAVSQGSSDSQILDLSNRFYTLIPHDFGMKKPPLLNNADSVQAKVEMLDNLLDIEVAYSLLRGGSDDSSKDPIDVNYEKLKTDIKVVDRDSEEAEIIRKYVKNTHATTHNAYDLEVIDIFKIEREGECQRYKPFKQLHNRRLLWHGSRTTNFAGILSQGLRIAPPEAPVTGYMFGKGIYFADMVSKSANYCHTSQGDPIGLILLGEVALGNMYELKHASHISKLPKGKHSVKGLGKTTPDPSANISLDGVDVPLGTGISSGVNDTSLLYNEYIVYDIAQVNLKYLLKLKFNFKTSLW

A549 cells = assay: Cytotoxicity potentiation assay; format: cell-based; details: test compound 0.4 μM, ratio of IC50 of topotecan alone to IC50 of topotecan with test compound
Experimental: A549 cells (ATCC, Rockville, Md.) were seeded into 96-well cell culture plates (Falcon brand, Fisher Scientific, Pittsburgh, Pa.) 16 to 24 hours before experimental manipulation. Cells were then treated with a test compound (or a combination of test compounds where indicated) each at a concentration of 0.4 μM for either 3 days or 5 days. At the end of treatments, relative cell number was determined either by MTT assay or SRB assay. For the MTT assay, 0.2 μg/μl of MTT (3-(4,5-dimethylthiazol-2-yl)-2,5-diphenyltetrazolium bromide) (Sigma Chemical Co., St. Louis, Mo.) was added to each well of a plate, and the plate was incubated in a cell-culture incubator for 4 hours. Metabolized MTT in each well was solubilized in 150 μl of DMSO (Sigma Chemical Co.) with shaking and quantified with a Wallac 1420 Victor plate reader (EG&G Wallac, Gaithersburg, Md.) at 540 nm. For the SRB assay, cells were fixed with 10% trichloroacetic acid (Sigma Chemical Co) for an hour at 4° C. After extensively washing, fixed cells were stained for 30 minutes with 0.4% sulforhodamine B (SRB, Sigma Chemical Co.) in 1% acetic acid (Sigma Chemical Co). Unbound SRB was washed away with 1% acetic acid. Then the cultures were air-dried, and dye was solubilized with 10 mM unbuffered Tris base (Sigma Chemical Co) with shaking. The bound dye was measured photometrically with the Wallac Victor plate reader at 515 nm. The ratio of the OD (optical density) value of a compound-treated culture to the OD value of a mock-treated culture, expressed in percentage, was used to quantify the cytotoxicity of a compound. […] To quantify the potentiation of the cytotoxicity of topotecan or temozolomide by test compounds, a dimensionless parameter PF50 is used and is defined as the ratio of the IC50 of topotecan or temozolomide alone to the IC50 of topotecan or temozolomide in combination with a test compound. For the compounds of the invention, PF50 values were determined by testing with topotecan.

Compound	melting point	Ki (purified PARP protein)	Cytotoxicity Potentiation PF50 (A549 cells)
O=C1NCCn2c(-c3ccncc3)nc3cccc1c32 [Example 3, 1-Pyridin-4-yl-8,9-dihydro-7H-2,7,9a-triaza-benzo[cd]azulen-6-one]	269 °C (dec.)	10.9 nM and 12 nM	1.4
O=C1NCCn2c(-c3ccc(F)c(F)c3)nc3cccc1c32 [Example 4, 1-(3,4-Difluoro-phenyl)-8,9-dihydro-7H-2,7,9a-triaza-benzo[cd]azulen-6-one]	245 to 247 °C	6.5 nM	1.5
O=C1NCCn2c(-c3ccccc3Cl)nc3cccc1c32 [Example 5, 1-(2-Chloro-phenyl)-8,9-dihydro-7H-2,7,9a-triaza-benzo[cd]azulen-6-one]	253 to 255 °C	7.7 nM	1.3
O=C1NCCn2c(-c3cccc(C(F)(F)F)c3)nc3cccc1c32 [Example 10, 1-(3-Trifluoromethyl-phenyl)-8,9-dihydro-7H-2,7,9a-triaza-benzo[cd]azulen-6-one]	250 to 252 °C	11.2 nM	1.7
O=C1NCCn2c(-c3ccccn3)nc3cccc1c32 [Example 12, 1-Pyridin-2-yl-8,9-dihydro-7H-2,7,9a-triaza-benzo[cd]azulen-6-one]	249 to 250 °C	21 nM and 17 nM	1.3
O=C1NCCn2c(-c3ccc(Cl)cc3)nc3cccc1c32 [Example 14, 1-(4-Chloro-phenyl)-8,9-dihydro-7H-2,7,9a-triaza-benzo[cd]azulen-6-one]	272 to 274 °C	5.7 nM and 7.6 nM	1.8
O=C1NCCn2c(-c3cccc(Oc4ccncc4)c3)nc3cccc1c32 [Example 17, 1-[3-(Pyridin-4-yloxy)-phenyl]-8,9-dihydro-7H-2,7,9a-triaza-benzo[cd]azulen-6-one]	245 to 247 °C	4.8 nM and 5.3 nM	1.7
S=C1NCCn2c(-c3ccccc3)nc3cccc1c32 [Example 25, 1-Phenyl-8,9-dihydro-7H-2,7,9a-triaza-benzo[cd]azulen-6-thione]	224 °C (dec.)	–	1.4
O=C1NCCn2c(O)nc3cccc1c32 [Example 26, 8,9-Dihydro-2H 7H-2,7,9a-triaza-benzo[cd]azulen-1,6-dione]	–	102 nM	1.1
CN(C)Cc1ccc(-c2cc3cccc4c3n2CCNC4=O)cc1 [Example 82, 6-(4-Dimethylaminomethyl-phenyl)-3,4-dihydro-2H-[1,4]diazepino[6,7,1-hi]indol-1-one]	–	6.2 nM and 6.6 nM	1.9
O=C1NCCn2c(-c3ccc(CNC4Cc5ccccc5C4)cc3)nc3cccc1c32 [Example 197, 1-[4-(Indan-2-ylaminomethyl)-phenyl]-8,9-dihydro-7H-2,7,9a-triaza-benzo[cd]azulen-6-one]	–	2.8 nM and 5.2 nM	2.5
CC1CCCN1Cc1ccc(-c2nc3cccc4c3n2CCNC4=O)cc1 (centres unmarked) [Example 212, 1-[4-(2-Methyl-pyrrolidin-1-ylmethyl)-phenyl]-8,9-dihydro-7H-2,7,9a-triaza-benzo[cd]azulen-6-one]	–	6.8 nM	2.0
C[C@H]1Cn2c(-c3ccc(CN4CC=CC4)cc3)nc3cccc(c32)C(=O)N1 [Example 223, (S)-1-[4-(2,5-Dihydro-pyrrol-1-ylmethyl)-phenyl]-8-methyl-8,9-dihydro-7H-2,7,9a-triaza-benzo[cd]azulen-6-one]	–	8.5 nM	2.1
C[C@H]1Cn2c(-c3ccc(CN4CCCC4)cc3)nc3cccc(c32)C(=O)N1 [Example 233, (S)-8-Methyl-1-(4-pyrrolidin-1-ylmethyl-phenyl)-8,9-dihydro-7H-2,7,9a-triaza-benzo[cd]azulen-6-one]	–	8 nM	2.2

More lines, in order of falling Ki (purified PARP protein), values ahead:

melting point	Ki (purified PARP protein)	Compound	Cytotoxicity Potentiation PF50 (A549 cells)
192 to 194 °C (dec.)	6.3 nM	CN(C)Cc1cccc(-c2nc3cccc4c3n2CCNC4=O)c1 [Example 32, 1-(3-Dimethylaminomethyl-phenyl)-8,9-dihydro-7H-2,7,9a-triaza-benzo[cd]azulen-6-one]	1.8
247 to 250 °C	6.2 nM	O=C1NCCn2c(-c3cccs3)nc3cccc1c32 [Example 8, 1-Thiophen-2-yl-8,9-dihydro-7H-2,7,9a-triaza-benzo[cd]azulen-6-one]	1.9
–	6 nM	COc1cccc(CCNCc2ccc(-c3nc4cccc5c4n3CCNC5=O)cc2)c1 [Example 184, 1-(4-{[2-(3-Methoxy-phenyl)-ethylamino]-methyl}-phenyl)-2,7,8,9-tetrahydro-2,7,9a-triaza-benzo[cd]azulen-6-one]	2.2
–	5.8 nM	CN(C)Cc1ccc(-c2nc3cccc4c3n2CCNC4=O)cc1 [Example 58, 1-(4-Dimethylaminomethyl-phenyl)-8,9-dihydro-7H-2,7,9a-triaza-benzo[cd]azulen-6-one]	2.0
–	5.8 nM	CC(c1ccc(-c2nc3cccc4c3n2CCNC4=O)cc1)N(C)C (centres unmarked) [Example 245, 1-[4-(1-Dimethylamino-ethyl)-phenyl]-8,9-dihydro-7H-2,7,9a-triaza-benzo[cd]azulen-6-one]	2.1
–	5.6 nM	O=C1NCCn2c(-c3ccc4ccccc4c3)nc3cccc1c32 [Example 11, 1-Naphthalen-2-yl-8,9-dihydro-7H-2,7,9a-triaza-benzo[cd]azulen-6-one]	2.1
–	5.5 nM	COc1ccc(CCNCc2ccc(-c3nc4cccc5c4n3CCNC5=O)cc2)cc1 [Example 186, 1-(4-{[2-(4-Methoxy-phenyl)-ethylamino]-methyl}-phenyl)-2,7,8,9-tetrahydro-2,7,9a-triaza-benzo[cd]azulen-6-one]	2.2
–	5 nM	O=C1NCCn2c(-c3ccc(CN4CCCC4)cc3)nc3cccc1c32 [Example 210, 1-(4-Pyrrolidin-1-ylmethyl-phenyl)-8,9-dihydro-7H-2,7,9a-triaza-benzo[cd]azulen-6-one]	2.3
–	4.6 nM	CCN(CCc1ccccn1)Cc1ccc(-c2nc3cccc4c3n2CCNC4=O)cc1 [Example 203, 1-(4-{[Ethyl-(2-pyridin-2-yl-ethyl)-amino]-methyl}-phenyl)-8,9-dihydro-7H-2,7,9a-triaza-benzo[cd]azulen-6-one]	2.0
–	4.5 nM	O=C1NCCn2c(-c3ccc(CN4CC=CC4)cc3)nc3cccc1c32 [Example 171, 1-[4-(2,5-Dihydro-pyrrol-1-ylmethyl)-phenyl]-8,9-dihydro-7H-2,7,9a-triaza-benzo[cd]azulen-6-one]	2.5
–	4.5 nM	O=C1NCCn2c(-c3ccc(CN4CCCC4)cc3)nc3cc(F)cc1c32 [Example 211, 4-Fluoro-1-(4-pyrrolidin-1-ylmethyl-phenyl)-8,9-dihydro-7H-2,7,9a-triaza-benzo[cd]azulen-6-one]	2.3
216 to 219 °C	4.3 nM	O=C1NCCn2c(-c3cccc(Oc4ccccc4)c3)nc3cccc1c32 [Example 6, 1-(3-Phenoxy-phenyl)-8,9-dihydro-7H-2,7,9a-triaza-benzo[cd]azulen-6-one]	2
–	4.2 nM	CN(CCc1cc2ccccc2[nH]1)Cc1ccc(-c2nc3cccc4c3n2CCNC4=O)cc1 [Example 207, 1-[4-({[2-(1H-Indol-2-yl)-ethyl]-methyl-amino}-methyl)-phenyl]-8,9-dihydro-7H-2,7,9a-triaza-benzo[cd]azulen-6-one]	2.4
–	4.1 nM	O=C1NCCn2c(-c3ccc(CN4CC=CC4)cc3)nc3cc(F)cc1c32 [Example 177, 1-[4-(2,5-Dihydro-pyrrol-1-ylmethyl)-phenyl]-4-fluoro-8,9-dihydro-7H-2,7,9a-triaza-benzo[cd]azulen-6-one]	2.5
284 to 287 °C	3.4 nM	O=C1NCCn2c(-c3ccc(F)cc3)nc3cc(F)cc1c32 [Example 18, 4-Fluoro-1-(4-fluoro-phenyl)-8,9-dihydro-7H-2,7,9a-triaza-benzo[cd]azulen-6-one]	2
–	3.3 nM	CC(c1ccc(-c2nc3cccc4c3n2CCNC4=O)cc1)N1CCCC1 (centres unmarked) [Example 246, 1-[4-(1-Pyrrolidin-1-yl-ethyl)-phenyl]-8,9-dihydro-7H-2,7,9a-triaza-benzo[cd]azulen-6-one]	2.3
